Experimental data from patent publication US20040082635A1, “Fused cyclic compounds and medicinal use thereof” (priority 2001, published 2004).
Where a name gives a salt, the structure may show the parent alone.

Molecular target: T1, HCV polymerase (Hepatitis C virus genotype 1b, UniProt P26663)
T1 construct: a region encoding NS5B (591 amino acids; J Virol 1991 Mar, 65(3), 1105-13) was amplified by PCR; 6 His (N); made in house; host or cells: Escherichia coli
Test: biochemical
Details: read-out: HCV polymerase inhibitory activity IC50

T1 sequence (P26663 2420-3010): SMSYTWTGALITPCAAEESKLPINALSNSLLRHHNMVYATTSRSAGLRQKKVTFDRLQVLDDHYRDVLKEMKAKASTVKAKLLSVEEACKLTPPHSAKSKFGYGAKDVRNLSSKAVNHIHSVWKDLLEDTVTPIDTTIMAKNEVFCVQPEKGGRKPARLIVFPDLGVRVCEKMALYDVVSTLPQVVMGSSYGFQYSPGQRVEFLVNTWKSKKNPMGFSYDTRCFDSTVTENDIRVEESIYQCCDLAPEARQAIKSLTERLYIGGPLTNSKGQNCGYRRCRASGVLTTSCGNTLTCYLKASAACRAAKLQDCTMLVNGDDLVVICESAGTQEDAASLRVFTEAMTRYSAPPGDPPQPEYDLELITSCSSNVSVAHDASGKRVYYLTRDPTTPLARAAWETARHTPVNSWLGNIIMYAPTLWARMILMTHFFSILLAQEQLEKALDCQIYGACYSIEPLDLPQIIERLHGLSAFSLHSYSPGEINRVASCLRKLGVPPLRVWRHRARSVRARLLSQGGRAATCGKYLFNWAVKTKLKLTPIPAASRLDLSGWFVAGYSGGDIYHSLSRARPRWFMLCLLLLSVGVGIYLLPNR

| SMILES | IC50 [nM] |
| --- | --- |
| CN(C)C(=O)c1ccc(-c2ccc(Cl)cc2)c(COc2ccc(-c3nc4cc(C(=O)O)ccc4n3C3CCCCC3)c(F)c2)c1 [Example 269, 2-{4-[2-(4-chlorophenyl)-5-dimethylcarbamoylbenzyloxy]-2-fluorophenyl}-1-cyclohexylbenzimidazole-5-carboxylic acid hydrochloride] | 13 |
| NC(=O)c1ccc(-c2ccc(Cl)cc2)c(COc2ccc(-c3nc4cc(C(=O)O)ccc4n3C3CCCCC3)c(F)c2)c1 [Example 270, 2-{4-[3-carbamoyl-6-(4-chlorophenyl)benzyloxy]-2-fluorophenyl}-1cyclohexylbenzimidazole-5-carboxylic acid hydrochloride] | 12 |
| CN(C)C(=O)c1ccc(-c2ccc(S(C)(=O)=O)cc2)c(COc2ccc(-c3nc4cc(C(=O)O)ccc4n3C3CCCCC3)cc2)c1 [Example 271, 2-{4-[3-dimethylcarbamoyl-6-(4-methanesulfonylphenyl)benzyloxy]-phenyl}-1-cyclohexylbenzimidazole-5-carboxylic acid hydrochloride] | 24 |
| CN(C)C(=O)c1ccc(-c2cccnc2)c(COc2ccc(-c3nc4cc(C(=O)O)ccc4n3C3CCCCC3)cc2)c1 [Example 272, 2-{4-[3-dimethylcarbamoyl-6-(3-pyridyl)benzyloxy]phenyl}-1-cyclohexylbenzimidazole-5-carboxylic acid dihydrochloride] | 66 |
| CN(C)C(=O)c1ccc(-c2ccc(C(=O)N(C)C)cc2COc2ccc(-c3nc4cc(C(=O)O)ccc4n3C3CCCCC3)cc2)cc1 [Example 273, 2-{4-[3-dimethylcarbamoyl-6-(4-dimethylcarbamoylphenyl)-benzyloxy]phenyl}-1-cyclohexylbenzimidazole-5-carboxylic acid] | 41 |
| COc1ccc(-c2ccc(Cl)cc2)c(COc2ccc(-c3nc4cc(C(=O)O)ccc4n3C3CCSCC3)c(F)c2)c1 [Example 276, 2-{4-[2-(4-chlorophenyl)-5-methoxybenzyloxy]-2-fluorophenyl}-1-(4-tetrahydrothiopyranyl)benzimidazole-5-carboxylic acid] | 23 |
| CN(C)S(=O)(=O)c1ccc(-c2ccc(Cl)cc2)c(COc2ccc(-c3nc4cc(C(=O)O)ccc4n3C3CCCCC3)cc2)c1 [Example 279, 2-{4-[2-(4-chlorophenyl)-5-dimethylsulfamoylbenzyloxy]phenyl}-1-cyclohexylbenzimidazole-5-carboxylic acid hydrochloride] | 17 |
| CS(=O)(=O)c1ccc(-c2ccc(Cl)cc2)c(COc2ccc(-c3nc4cc(C(=O)O)ccc4n3C3CCCCC3)cc2)c1 [Example 280, 2-{4-[2-(4-chlorophenyl)-5-methanesulfonylbenzyloxy]phenyl}-1-cyclohexylbenzimidazole-5-carboxylic acid] | 16 |
| CN(C)c1ccc(-c2ccc(Cl)cc2)c(COc2ccc(-c3nc4cc(C(=O)O)ccc4n3C3CCCCC3)cc2)c1 [Example 282, 2-{4-[2-(4-chlorophenyl)-5-dimethylaminobenzyloxy]phenyl}-1-cyclohexylbenzimidazole-5-carboxylic acid] | 19 |
| CS(=O)(=O)Nc1ccc(-c2ccc(Cl)cc2)c(COc2ccc(-c3nc4cc(C(=O)O)ccc4n3C3CCCCC3)cc2)c1 [Example 283, 2-{4-[2-(4-chlorophenyl)-5-methanesulfonylaminobenzyloxy]phenyl}-1-cyclohexylbenzimidazole-5-carboxylic acid] | 14 |
| CCN(CC)C(=O)c1ccc(-c2ccc(Cl)cc2)c(COc2ccc(-c3nc4cc(C(=O)O)ccc4n3C3CCCCC3)c(F)c2)c1 [Example 284, 2-{4-[2-(4-chlorophenyl)-5-diethylcarbamoylbenzyloxy]-2-fluorophenyl}-1-cyclohexylbenzimidazole-5-carboxylic acid] | 14 |
| O=C(O)c1ccc2c(c1)nc(-c1ccc(OCc3cc(C(=O)N4CCCCC4)ccc3-c3ccc(Cl)cc3)cc1F)n2C1CCCCC1 [Example 286, 2-{4-[2-(4-chlorophenyl)-5-piperidinocarbonylbenzyloxy]-2-fluorophenyl}-1-cyclohexylbenzimidazole-5-carboxylic acid] | 14 |
| O=C(O)c1ccc2c(c1)nc(-c1ccc(OCc3cc(C(=O)N4CCCC4)ccc3-c3ccc(Cl)cc3)cc1F)n2C1CCCCC1 [Example 287, 2-{4-[2-(4-chlorophenyl)-5-(1-pyrrolidinyl)carbonylbenzyloxy]-2-fluorophenyl}-1-cyclohexylbenzimidazole-5-carboxylic acid] | 12 |
| O=C(O)c1ccc2c(c1)nc(-c1ccc(OCc3cc(C(=O)NCCO)ccc3-c3ccc(Cl)cc3)cc1F)n2C1CCCCC1 [Example 288, 2-{4-[2-(4-chlorophenyl)-5-(2-hydroxyethyl)carbamoylbenzyloxy]-2-fluorophenyl}-1-cyclohexylbenzimidazole-5-carboxylic acid] | 13 |
| O=C(O)c1ccc2c(c1)nc(-c1ccc(OCc3cc(C(=O)N4CCC(O)CC4)ccc3-c3ccc(Cl)cc3)cc1F)n2C1CCCCC1 [Example 289, 2-{4-[2-(4-chlorophenyl)-5-(4-hydroxypiperidino)-carbonylbenzyloxy]-2-fluorophenyl}-1-cyclohexylbenzimidazole-5-carboxylic acid] | < 10 |
| O=C(O)c1ccc2c(c1)nc(-c1ccc(OCc3cc(C(=O)N4CCOCC4)ccc3-c3ccc(Cl)cc3)cc1F)n2C1CCCCC1 [Example 290, 2-{4-[2-(4-chlorophenyl)-5-morpholinocarbonylbenzyloxy]-2-fluorophenyl}-1-cyclohexylbenzimidazole-5-carboxylic acid] | 12 |
| O=C(O)c1ccc2c(c1)nc(-c1ccc(OCc3cc(C(=O)N4CCSCC4)ccc3-c3ccc(Cl)cc3)cc1F)n2C1CCCCC1 [Example 291, 2-{4-[2-(4-chlorophenyl)-5-thiomorpholinocarbonylbenzyloxy]-2-fluorophenyl}-1-cyclohexylbenzimidazole-5-carboxylic acid] | 16 |
| O=C(O)CNC(=O)c1ccc(-c2ccc(Cl)cc2)c(COc2ccc(-c3nc4cc(C(=O)O)ccc4n3C3CCCCC3)c(F)c2)c1 [Example 292, 2-{4-[3-(carboxymethylcarbamoyl)-6-(4-chlorophenyl)benzyloxy]-2-fluorophenyl}-1-cyclohexylbenzimidazole-5-carboxylic acid] | 15 |
| O=C(O)CCc1ccc(-c2ccc(Cl)cc2COc2ccc(-c3nc4cc(C(=O)O)ccc4n3C3CCCCC3)cc2)cc1 [Example 293, 2-{4-[2-{4-(2-carboxyethyl)phenyl}-5-chlorobenzyloxy]phenyl}-1-cyclohexylbenzimidazole-5-carboxylic acid] | 34 |
| O=C(O)c1ccc2c(c1)nc(-c1ccc(OCc3cc(Cl)ccc3-c3ccc(CO)cc3)cc1)n2C1CCCCC1 [Example 294, 2-{4-[3-chloro-6-(4-hydroxymethylphenyl)benzyloxy]phenyl}-1-cyclohexylbenzimidazole-5-carboxylic acid] | 32 |
| COCc1ccc(-c2ccc(Cl)cc2COc2ccc(-c3nc4cc(C(=O)O)ccc4n3C3CCCCC3)cc2)cc1 [Example 295, 2-{4-[3-chloro-6-(4-methoxymethylphenyl)benzyloxy]phenyl}-1-cyclohexylbenzimidazole-5-carboxylic acid] | 45 |
| O=C(O)c1cccc(-c2ccc(Cl)cc2COc2ccc(-c3nc4cc(C(=O)O)ccc4n3C3CCCCC3)cc2)c1 [Example 296, 2-{4-[2-(3-carboxyphenyl)-5-chlorobenzyloxy]phenyl}-1-cyclohexylbenzimidazole-5-carboxylic acid] | 34 |
